pIC50: −log10 of the molar value. Structures can show the parent of a compound that is named as a salt. Blank lines part the entries; values can stand above or below the molecule they belong to.
Experiments:
PHD2 = PHD2 (Homo sapiens, UniProt Q9GZT9); assay: Competition-based NMR reporter ligand displacement assay ([13C]-2OG / [13C]-CODD); type: binding; settings: 50 μM apo-PHD2, 400 μM Zn(II), 400 μM competitor
Procedure: For 2OG displacement assays, selective ^1H-^13C 1D-HSQC experiments were conducted at 700 MHz using a Bruker Avance III spectrometer equipped with an inverse TCI cryoprobe optimized for ^1H observation. The CLIP-HSQC sequence was used (without ^13C decoupling). Typical experimental parameters were as follows: acquisition time 0.58 s, relaxation delay 2 s, number of transients 256−1600. The 1JCH was set to 160 Hz. For the selective version of the experiment, a 6.8 ms Q3 180 degree pulse was used, and selective irradiation was applied at the appropriate [^13C] chemical shift. Three millimeter MATCH tubes with a 160 μL final sample volume were used. Solutions were buffered using Tris-D11 50 mM (pH 7.5) dissolved in 90% H2O and 10% D2O. Assays were conducted at 298 K in solutions typically containing 50 μM apo-PHD2, 400 μM Zn(II), 50 μM 1,2,3,4-[^13C]-2OG or [^13C]-labeled CODD (uniformly [^13C]-labeled at proline-564) and 400 μM competitor (except unlabeled CODD competitor used at 800 μM). Selective irradiation was applied at 30.5 ppm for [^13C]-2OG and 24.25 ppm for [^13C]-labeled CODD. Percentage displacement was calculated according to equation: (I−I0)/(Iblank−I0) where I 0 is the intensity of the reporter in the presence of protein but without inhibitor, I is the intensity of the reporter in the presence of protein and inhibitor, and I blank is the intensity of the reporter without protein or inhibitor.
The results reveal that the previously described inhibitor IOX2 displaces 2OG from PHD2 (S3A Fig), consistent with its predicted binding mode. […] Previous crystallographic studies have shown that the HIF substrate can still bind even when the 2OG active site is occupied by some, but not all, inhibitors.

HIF1α and HIF2α = assay: HIFα induction in tissues of treated mice (immunoblotting); type: in vivo, C57BL/6 mice; settings: i.p.
Procedure: All animal experiments were performed on male C57BL/6 mice aged 3 months (purchased from Harlan Laboratories, Blackthorn) housed in specific pathogen free conditions with free access to water and standard chow. Mice were injected intraperitonially with the inhibitor (dissolved in Hanks’ buffered saline solution, pH 7.0, 5% DMSO final) or vehicle at the indicated doses for the indicated time as previously described. Tissues from treated mice were harvested and ‘snap frozen’ with liquid nitrogen before being stored at -80°C. For immunoblotting, a portion of the tissues was removed, weighed and homogenised in urea/SDS buffer before being analysed by immunoblotting with HIF1α rabbit polyclonal antibody (10006421, Cayman Chemical, 1:1000) or HIF2α rabbit polyclonal antibody (PM9 [27], 1:1000). For RNA extraction, tissues were ‘snap frozen’ in liquid nitrogen immediately after harvesting, then ground to a fine powder using a cryogenic tissue pulveriser, keeping samples on dry ice at all times and processed for total RNA extraction using the mirVana miRNA isolation kit (AM1560, Life Technologies) according to the manufacturer’s protocol for processing frozen tissues. All animal procedures were compliant with the UK Home Office Animals (Scientific Procedures) Act 1986 and Local Ethical Review Procedures (University of Oxford Medical Sciences Division Ethical Review Committee).
The inhibitors or vehicle controls were injected intraperitonially into wild type C57BL/6 mice and sacrificed after the indicated treatment time before harvesting their tissues to be analysed for HIFα levels by immunoblotting.

FIH = FIH (Homo sapiens, UniProt Q9NWT6); assay: FIH liquid chromatography-mass spectrometry assay (RapidFire)
FIH, sequence (Q9NWT6 whole entry): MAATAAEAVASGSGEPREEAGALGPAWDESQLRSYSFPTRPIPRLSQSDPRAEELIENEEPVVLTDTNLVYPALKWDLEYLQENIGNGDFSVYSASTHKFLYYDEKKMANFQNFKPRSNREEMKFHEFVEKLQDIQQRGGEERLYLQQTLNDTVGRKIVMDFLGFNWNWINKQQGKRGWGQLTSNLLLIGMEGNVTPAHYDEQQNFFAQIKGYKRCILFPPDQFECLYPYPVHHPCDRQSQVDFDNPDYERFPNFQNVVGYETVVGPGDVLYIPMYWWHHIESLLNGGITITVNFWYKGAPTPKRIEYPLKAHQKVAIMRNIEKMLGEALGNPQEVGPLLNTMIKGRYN
Procedure: After 15 minutes, the enzyme reaction was stopped by the addition of 4 ml 10% formic acid and the reaction mixture transferred to a RapidFire RF360 high throughput sampling robot. Samples were aspirated under vacuum onto a C4 Solid Phase Extraction (SPE) cartridge. […] Ion chromatogram data was extracted for the non-hydroxylated peptide substrate and the hydroxylated peptide product and peak area data for extracted ion chromatograms were integrated using RapidFire Integrator software. Percentage conversion of substrate to product was calculated in Microsoft Excel and IC50 values were calculated using Graphpad Prism 5.

BBOX1 = target: T1, BBOX1 (Homo sapiens, UniProt O75936); design: method as in PMID 22730246; settings: cited from earlier work
T1 sequence (O75936 1-387): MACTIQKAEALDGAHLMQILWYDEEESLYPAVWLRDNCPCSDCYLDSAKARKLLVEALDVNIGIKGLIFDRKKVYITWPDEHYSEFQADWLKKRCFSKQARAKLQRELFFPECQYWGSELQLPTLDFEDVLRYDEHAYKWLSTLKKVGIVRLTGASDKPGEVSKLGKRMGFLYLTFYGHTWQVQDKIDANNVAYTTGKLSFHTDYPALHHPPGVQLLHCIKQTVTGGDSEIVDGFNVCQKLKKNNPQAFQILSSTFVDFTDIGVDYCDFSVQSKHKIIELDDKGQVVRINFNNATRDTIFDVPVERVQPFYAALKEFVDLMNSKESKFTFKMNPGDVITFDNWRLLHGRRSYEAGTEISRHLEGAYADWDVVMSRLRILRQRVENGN

JMJD2A (KDM4A) = target: T2, JMJD2A (KDM4A) (Homo sapiens, UniProt O75164); design: method as in PMID 26682036; settings: cited from earlier work
T2 sequence (O75164 1-1064): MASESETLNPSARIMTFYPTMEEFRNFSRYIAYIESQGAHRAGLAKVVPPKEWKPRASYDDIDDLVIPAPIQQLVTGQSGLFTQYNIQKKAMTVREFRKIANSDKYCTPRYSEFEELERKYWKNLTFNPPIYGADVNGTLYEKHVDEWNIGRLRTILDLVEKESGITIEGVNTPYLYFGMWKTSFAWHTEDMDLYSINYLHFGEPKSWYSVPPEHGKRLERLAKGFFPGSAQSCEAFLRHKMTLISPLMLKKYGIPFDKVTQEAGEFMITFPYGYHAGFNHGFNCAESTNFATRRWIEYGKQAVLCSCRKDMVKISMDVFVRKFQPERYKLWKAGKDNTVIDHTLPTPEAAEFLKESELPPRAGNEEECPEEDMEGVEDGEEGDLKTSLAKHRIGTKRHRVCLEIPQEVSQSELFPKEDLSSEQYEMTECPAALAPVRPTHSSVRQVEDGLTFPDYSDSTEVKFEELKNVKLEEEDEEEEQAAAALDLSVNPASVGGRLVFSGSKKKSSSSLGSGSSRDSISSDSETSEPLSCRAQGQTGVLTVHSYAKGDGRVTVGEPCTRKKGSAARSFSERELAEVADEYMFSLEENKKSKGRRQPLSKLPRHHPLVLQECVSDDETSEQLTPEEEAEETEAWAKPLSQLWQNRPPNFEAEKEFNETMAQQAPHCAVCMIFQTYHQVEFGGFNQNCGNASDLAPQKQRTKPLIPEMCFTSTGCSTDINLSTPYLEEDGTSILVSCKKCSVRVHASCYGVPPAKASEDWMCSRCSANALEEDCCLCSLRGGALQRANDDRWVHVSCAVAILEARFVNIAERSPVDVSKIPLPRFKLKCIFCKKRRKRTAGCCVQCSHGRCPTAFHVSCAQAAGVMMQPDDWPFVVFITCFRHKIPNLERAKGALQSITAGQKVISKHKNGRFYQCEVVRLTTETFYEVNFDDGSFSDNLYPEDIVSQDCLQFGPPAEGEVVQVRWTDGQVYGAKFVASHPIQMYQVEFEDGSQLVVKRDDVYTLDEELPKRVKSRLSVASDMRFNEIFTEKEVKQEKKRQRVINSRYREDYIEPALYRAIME

JMJD2C (KDM4C) = target: T3, JMJD2C (KDM4C) (Homo sapiens, UniProt Q9H3R0); design: method as in PMID 26682036; settings: cited from earlier work
T3 sequence (Q9H3R0 1-1056): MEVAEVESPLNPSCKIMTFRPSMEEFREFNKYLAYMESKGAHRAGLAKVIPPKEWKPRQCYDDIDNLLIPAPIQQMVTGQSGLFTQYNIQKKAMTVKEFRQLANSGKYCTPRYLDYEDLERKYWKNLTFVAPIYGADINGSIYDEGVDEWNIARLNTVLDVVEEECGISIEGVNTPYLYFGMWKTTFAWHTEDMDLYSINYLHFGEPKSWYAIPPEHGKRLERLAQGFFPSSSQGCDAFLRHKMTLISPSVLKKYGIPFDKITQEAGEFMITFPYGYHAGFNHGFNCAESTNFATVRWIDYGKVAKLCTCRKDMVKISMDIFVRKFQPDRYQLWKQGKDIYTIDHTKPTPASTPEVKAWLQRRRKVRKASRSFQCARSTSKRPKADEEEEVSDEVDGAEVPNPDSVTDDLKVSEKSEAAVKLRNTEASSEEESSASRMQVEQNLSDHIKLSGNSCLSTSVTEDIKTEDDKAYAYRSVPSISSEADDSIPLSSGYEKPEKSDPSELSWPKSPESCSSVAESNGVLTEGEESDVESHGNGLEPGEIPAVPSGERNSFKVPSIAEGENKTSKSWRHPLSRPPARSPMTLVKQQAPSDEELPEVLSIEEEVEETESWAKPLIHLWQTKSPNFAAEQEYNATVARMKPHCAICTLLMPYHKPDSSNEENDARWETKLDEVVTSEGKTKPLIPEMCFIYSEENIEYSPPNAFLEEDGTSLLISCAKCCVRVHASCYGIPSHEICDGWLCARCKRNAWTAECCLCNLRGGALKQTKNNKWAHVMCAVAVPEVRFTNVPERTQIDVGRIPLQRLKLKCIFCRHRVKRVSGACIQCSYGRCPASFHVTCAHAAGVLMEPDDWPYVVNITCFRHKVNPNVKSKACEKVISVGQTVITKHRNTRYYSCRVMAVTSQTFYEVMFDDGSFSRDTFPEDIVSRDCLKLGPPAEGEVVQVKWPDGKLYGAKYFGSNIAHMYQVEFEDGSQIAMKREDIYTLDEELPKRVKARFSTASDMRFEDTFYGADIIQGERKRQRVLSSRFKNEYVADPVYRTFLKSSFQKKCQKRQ

[1] = 1 h, equimolar: IOX2 37.7 mg/kg, IOX4 35 mg/kg, DMOG 75 mg/kg

PHD2, sequence (Q9GZT9 whole entry): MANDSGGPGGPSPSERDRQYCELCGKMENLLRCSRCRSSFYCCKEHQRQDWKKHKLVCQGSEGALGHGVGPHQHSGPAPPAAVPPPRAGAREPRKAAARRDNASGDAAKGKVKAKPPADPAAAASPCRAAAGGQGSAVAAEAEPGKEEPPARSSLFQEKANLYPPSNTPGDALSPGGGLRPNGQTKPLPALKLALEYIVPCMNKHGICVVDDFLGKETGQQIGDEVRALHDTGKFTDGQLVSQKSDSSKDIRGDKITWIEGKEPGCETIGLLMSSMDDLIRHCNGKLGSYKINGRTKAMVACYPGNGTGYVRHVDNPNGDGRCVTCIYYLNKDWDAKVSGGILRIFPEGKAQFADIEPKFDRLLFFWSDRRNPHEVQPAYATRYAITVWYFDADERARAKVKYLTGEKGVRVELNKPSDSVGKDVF

melting point: ≥ 316.6 °C (dec.)
SMILES: O=C(O)c1ccc(-n2[nH]cc(-n3ccnn3)c2=O)nc1 (as salt: hydrochloride) [compound 1, 6-(5-oxo-4-(1H-1,2,3-triazol-1-yl)-2,5-dihydro-1H-pyrazol-1-yl)pyridine-3-carbocylic acid hydrochloride]

displacement of [13C]-2OG from PHD2 (PHD2): displace both 2OG and CODD | displacement of [13C]-CODD from PHD2 (PHD2): displace both 2OG and CODD
SMILES: O=C(O)Cc1cs/c(=N/C(=O)CS(=O)(=O)Cc2ccc3ccccc3c2)n1O [BNS, bicyclic naphthalenylsulfone hydroxythiazole]

pIC50 (FIH): 5.64
SMILES: O=C(O)CNC(=O)C(=O)O [NOG, N-oxalylglycine]
pIC50 (BBOX1): 6.41 | pIC50 (JMJD2A (KDM4A)): 6.70 | pIC50 (JMJD2C (KDM4C)): 6.22

The next lines start with the molecule.

SMILES: COC(=O)CNC(=O)C(=O)OC [DMOG, dimethyloxalylglycine]
HIF1α and HIF2α induction in liver, kidney and heart (HIF1α and HIF2α; [1]): induction of HIF1α and HIF2α | HIF1α and HIF2α induction in the brain (HIF1α and HIF2α; [1]): not

SMILES: O=C(O)CNC(=O)c1nc(Cl)c2ccccc2c1O [IOX3]
HIF1α induction in mouse liver (HIF1α and HIF2α; IOX2 37.7 mg/kg, IOX3 30 mg/kg (equivalent molar dose), 1 h and […]): lower and shorter induction of HIF1α

— PMC4492579, “Potent and Selective Triazole-Based Inhibitors of the Hypoxia-Inducible Factor Prolyl-Hydroxylases with Activity in the Murine Brain” (PLoS ONE, 2015)
